Measurements published in US8735071B2, “Compositions for promoting epigenetic DNA demethylation and methods of use therefore” (The Johns Hopkins University, priority 2008, dated 2014).

What was measured:
Arc = settings: CPP 10 mg/kg i.p. at 1 hr before ECT; 1 hr after ECT; FIG. 2E
Procedure: (§1) Electroconvulsive treatment (ECT) was administered with pulses consisted of 1.0 s, 100 Hz, 18 mA stimulus of 0.3 ms delivered using the Ugo Basile ECT unit (Model 57800) as previously described (A. J. Cole, Neurochem 55, 1920 (1990)). […] S ham animals were similarly handled in parallel without the current delivery. In some experiments, ±3-(2-carboxypiperazin-4-yl)-propyl-1-phosphonic acid (CPP, 10 mg/kg body weight, i.p.), was injected at 1 hr before ECT. Potential damaging responses after ECT was examined by Western blot and immunostaining of the activated form of caspase (Caspase 3-a; Rabbit; 1:500; Cell Signaling) and phospho-ATM (Ataxia telangiectasia mutated kinase; mouse; Millipore) (3).
(§2) Dentate gyrus tissue was rapidly micro-dissected from adult WT mice, or with ECT, spatial exploration or running. […] For gene expression analysis, total RNA fraction was immediately isolated after dissection (Qiagen), treated with DNAase and reverse-transcribed into the first-strand cDNA (Invitrogen). Specific primers (listed in Table 1) were used in SYBR-green based quantitative real-time PCR to measure the expression level of target genes with the ΔΔT method (ABI). Most primers were designed to span introns to further prevent genomic DNA amplification during the PCR reaction.

Gadd45b = settings: CPP 10 mg/kg i.p. at 1 hr before ECT; 1 hr after ECT; FIG. 2E
Procedure: as §1, §2

Gadd45b expression = Gadd45b expression in cultured primary hippocampal neurons by Q-PCR; format: cell-based, mice; settings: for Gadd45b expression: agent alone, K^+ 50 mM, APV 200 μM, bicuculline 50 μM, FIG. 5A, 5C; for K^+-induced Gadd45b expression: pretreated 0.5 hr, then K^+ (50 mM) for 1 hr, BAPTA 50 μM, Nimodipin 10 μM, KN93 or KN92 10 μM, FIG. 5B
Description: as §2
Primary hippocampal neurons were prepared from hippocampi of P0 mice and plated on poly-lysine coated coverslips in Neurobasal-A medium supplemented with B27 (Invitrogen) as previously described (H. Song, C. F. Stevens, F. H. Gage, Nature 417, 39 (2002)). AraC (5 μM) was added to eliminate proliferating cells. One-week old culture was used for all experiments. For pharmacological experiments, cultures were pretreated with the following inhibitors 30 minutes before stimulation with K^+ (50 mM) or glutamate (20 μM) for 1 hr: BAPTA (50 μM), Nimodipin (10 μM), APV (200 μM), bicuculline (50 μM), KN92 or KN93 (10

adult neural progenitors = assay: Proliferation of adult hippocampal neural progenitors in culture; format: cell-based, rat; settings: FGF-1 0, 2, 5, 10 and 20 ng/ml versus FGF-2 20 ng/ml; cell number at 4 days in vitro; FIG. 23
Procedure: Established neural progenitors from adult rat hippocampus were cultured as monolayer as previously described (H. Song, C. F. Stevens, F. H. Gage, Nature 417, 39 (2002).). They were maintained on laminin and polyornithine-coated dishes in DMEM/F12 medium containing N2 supplement, L-glutamine (2 mM) and FGF-2 (20 ng/ml). Cultures were passaged for expansion when reaching 70% confluence. For FGF-1 experiments, early-passage, monolayer adherent cultures were plated at the clonal density in the presence of various concentration of FGF-1 or FGF-2 (PeproTech). At 4 days in vitro, cultures were fixed and cell numbers from each condition were determined by counting from randomly selected fields of 4 different biological replicates.

| Compound | Gadd45b expression (Gadd45b expression; glutamate 20 μM) | K^+-induced Gadd45b expression (Gadd45b expression) | other results |
| --- | --- | --- | --- |
| O=C(O)C1CN(CCCP(=O)(O)O)CCN1 (racemic) [CPP, ±3-(2-carboxypiperazin-4-yl)-propyl-1-phosphonic acid] |  |  | ECT-induced Arc expression (Arc): abolished; ECT-induced Gadd45b expression (Gadd45b): abolished |
| N[C@@H](CCCP(=O)(O)O)C(=O)O [APV] | significantly decreased |  | glutamate-induced Gadd45b expression (Gadd45b expression; APV 200 μM pre-treatment, glutamate 20 μM, FIG. 5C): blocked |
| O=C(O)CN(CC(=O)O)c1ccccc1OCCOc1ccccc1N(CC(=O)O)CC(=O)O [BAPTA] |  | abolished |  |
| COc1ccc(S(=O)(=O)Nc2ccccc2CN(C)C/C=C/c2ccc(Cl)cc2)cc1 [KN92] |  | not |  |
| COc1ccc(S(=O)(=O)N(CCO)c2ccccc2CN(C)C/C=C/c2ccc(Cl)cc2)cc1 [KN93] |  | abolished |  |
| [Cl-].[K+] [K^+] | significant increase |  |  |
| COCCOC(=O)C1=C(C)NC(C)=C(C(=O)OC(C)C)C1c1cccc([N+](=O)[O-])c1 (centres unmarked) [Nimodipin] |  | abolished |  |
| N[C@@H](CCC(=O)O)C(=O)O [glutamate] | induced |  |  |
| FGF-1: fibroblast growth factor-1 (PeproTech) |  |  | mitogenic activity on neural progenitor proliferation in vitro (adult neural progenitors): robust mitogenic activity |
